This passage reports IC50 and Activity results from ChEMBL document CHEMBL1147073, “Signal peptide peptidase and gamma-secretase share equivalent inhibitor binding pharmacology” (J Biol Chem, 2007).

Holding throughout (type): cell-based
Test [1] concerns the target Gamma-secretase. The test is described as follows: Displacement of [3H]IN973 from gamma-secretase in human THP1 cells. To be noted: thp-1. For orientation: In a radioligand displacement assay an active substance lowers the binding of a labelled ligand.
Test [2] has as its target Gamma-secretase. The test can be described thus: Displacement of [3H]L685458 from gamma-secretase in human THP1 cells. To be noted: thp-1.
Test [3] is described as follows: Displacement of [3H]L685458 from human SPP expressed in HEK293 cells.
Test [4] can be described thus: Inhibition of SPP expressed in HEK293 cells in presence of Prl-PP peptide after 30 mins.
In another test the test system is HEK293. The test is described as follows: Inhibition of SPP expressed in HEK293 cells at 10 uM in presence of Prl-PP peptide after 30 mins.

Activity calls are given as the source filed them. The calls are words filed in the database; no cut-off is given here.

In the case of `CC(C)C[C@H](NC(=O)[C@H](Cc1ccccc1)C[C@@H](O)[C@H](Cc1ccccc1)NC(=O)OC(C)(C)C)C(=O)N[C@@H](Cc1ccccc1)C(N)=O`, the IC50 – broadly, the concentration at which inhibition is half-maximal – on Gamma-secretase [1] was 72 nM; on Gamma-secretase [2], 4.3 nM; in test [3], 10 nM; in test [4] it was 10000 nM.
For the compound `C[C@H](c1ccc(F)cc1CCCC(=O)O)N(c1cc(F)ccc1F)S(=O)(=O)c1ccc(Cl)cc1`, the IC50 turned out to be 12 nM at Gamma-secretase [1], 25600 nM on Gamma-secretase [2] and 28700 nM in test [3]. For the same compound, in the test on HEK293, the result was inactive.
Regarding `C[C@H](NC(=O)[C@@H](O)c1cc(F)cc(F)c1)C(=O)N[C@@H]1C(=O)N(C)N=Cc2ccccc21`, the IC50 is 1.2 nM on Gamma-secretase [1] and 510 nM at Gamma-secretase [2]. Besides, the result in the test on HEK293 was inactive.
As to `CC(C)C[C@H](NC(=O)OCc1ccccc1)C(=O)N[C@@H](CC(C)C)C(=O)NCC(=O)CNC(=O)[C@H](CC(C)C)NC(=O)[C@H](CC(C)C)NC(=O)OCc1ccccc1`, the IC50 on Gamma-secretase [1] was 2060 nM; on Gamma-secretase [2], 8.7 nM; in test [3] it was 5.3 nM; in test [4], 2000 nM.
Compound `CCC[C@H](C(N)=O)[C@@H](CC(C)C)C(=O)N[C@H]1N=C(c2ccccc2)c2ccccc2N(C)C1=O` showed an IC50 in test [3] of 560 nM. Further, the outcome with HEK293 was inactive.
In the case of `C[C@H](NC(=O)Cc1cc(F)cc(F)c1)C(=O)N[C@H](C(=O)OC(C)(C)C)c1ccccc1`, the results for the IC50 (on Gamma-secretase [1]; at Gamma-secretase [2]; in test [3]) were 6.3 nM, above 100000 nM and 34200 nM, respectively. Also, the result in the test with HEK293 was inactive.
As to `CSc1ccc(/C=C2/C(C)=C(CC(=O)O)c3cc(F)ccc32)cc1` [SULINDAC SULFIDE], the half-inhibitory concentration (IC50) is 332000 nM at Gamma-secretase [1], 57100 nM at Gamma-secretase [2] and 45200 nM in test [3].
